Key:
Format in all cases: functional
CCRF-CEM [1] = experiment: In vitro concentration required for 50% inhibition of growth of human leukemia cell line CCRF-CEM with hPAP (0.2 unit/mL)
CCRF-CEM [2] = experiment: In vitro concentration required for 50% inhibition of growth of human leukemia cell line CCRF-CEM without hPAP (0.2 unit/mL)
[3] = Ratio of GI50 without hPAP/ GI50 with hPAP

| Compound | GI50 (CCRF-CEM [1]) | GI50 (CCRF-CEM [2]) | Ratio [3] |
| --- | --- | --- | --- |
| COC(=O)[C@H](Cc1c[nH]c2ccccc12)NP(=O)(O)OCC1OC(n2cc(F)c(=O)[nH]c2=O)CC1O (some centres not stated) | 0.9 nM | 4830 nM | 5370 |
| O=c1[nH]c(=O)n([C@H]2C[C@H](O)[C@@H](CO)O2)cc1F [FLOXURIDINE] | 0.6 nM | 2 nM | 3.33 |
| Nc1ccn([C@@H]2O[C@H](CO)[C@@H](O)[C@@H]2O)c(=O)n1 [CYTARABINE] | 99.8 nM | 90 nM | 0.902 |
| COC(=O)[C@H](Cc1ccccc1)NP(=O)(O)OCC1OC(n2cc(F)c(=O)[nH]c2=O)CC1O (some centres not stated) | 0.8 nM | 463 nM | 578 |

From ChEMBL document CHEMBL1133824, “Amino acid phosphoramidate nucleosides: potential ADEPT/GDEPT substrates” (2001)
